Data as given in patent US12097189B1, “Pharmaceutical composition for modified release” (ASTELLAS PHARMA INC., priority 2024, dated 2024).

What was measured:
[1] = Elimination half-life of compound A; conditions: in vivo; read-out: elimination half-life (T1/2)
Text: Taking into consideration the results of the clinical trial described above, the present inventors conducted intensive studies to design the formulation by paying attention to the control of a release rate of the drug from a formulation to the extent that the release is not affected by food intake or the like, rather than the addition of release control.

[2] = Pharmacokinetics (PK) test of immediate release formulation (capsule formulation) in human: Cmax and heart rate; format: in vivo; conditions: healthy subjects; immediate release capsules, 0.1 mg to 340 mg
Procedure: An immediate release formulation (capsule formulation) containing compound A was administered to healthy subjects in a fasted state, before 30 min from the intake of a meal, or after 30 min from the meal, and the drug concentration in the plasma was measured. The immediate release formulations (capsule formulations) containing 0.1 mg, 1 mg, 5 mg, 20 mg, and 80 mg of the compound A were used in combinations as needed so that the dose of compound A became 0.1 mg, 1 mg, 3 mg, 10 mg, 30 mg, 100 mg, 160 mg, 240 mg, and 340 mg.

half-life [1]: 18 to 24 h
Compound: Nc1nc(CC(=O)Nc2ccc(CCNC[C@H](O)c3ccccc3)cc2)cs1 [compound A, (R)-2-(2-aminothiazol-4-yl)-4′-[2-[(2-hydroxy-2-phenylethyl)amino]ethyl]acetic acid anilide]
relation between maximum plasma concentration (Cmax) and increase in heart rate from the base line [2]: a positive correlation was observed
